The values below are quoted from earlier work in patent publication US6974895B1, “Transgenic legume plants modified to produce resveratrol glucoside and uses thereof” (The Samuel Roberts Noble Foundation, Inc., priority 1999, dated 2005).

The data set relates to aberrant colon crypt formation. To be noted: azoxymethane treated rat model (Steele, et al. 1998).

As to `Oc1ccc(C=Cc2cc(O)cc(O)c2)cc1` [resveratrol, 3,5,4′-trihydroxystilbene], the “inhibition of aberrant colon crypt formation” value is listed as “significant inhibition”.
